Experimental findings from US6472391B2, “Nitrogen-containing heterocyclic compounds” (Millennium Pharmaceuticals, Inc., priority 1996, dated 2002) are described below.

In general, melting point refers to the temperature of the solid-liquid transition. `COc1cc2ncnc(N3CCN(C(=O)NCc4ccc(Br)cc4)CC3)c2cc1OC` [Compound 184, N-(4-Bromobenzyl)-4-(6,7-dimethoxy-4-quinazolinyl)-1-piperazinecarboxamide] gave a melting point of 211 to 212 °C.
The compound `CCOc1cc2c(N3CCN(C(=S)NCc4cccnc4)CC3)ncnc2cc1OC` [Compound 349, 4-(6-Ethoxy-7-methoxy-4-quinazolinyl)-N-(3-picolyl)-1-piperazinethiocarboxamide] displayed a melting point of 208 to 209 °C.
The result for `COc1cc2c(N3CCN(C(=O)Nc4ccc(Oc5ccccc5)cc4)CC3)ncnc2cc1OC(C)C` [Compound 339, 4-(7-Isopropoxy-6-methoxy-4-quinazolinyl)-N-(4-phenoxyphenyl)-1-piperazinecarboxamide] reads 157 to 160 °C; that for `COc1cc2ncnc(N3CCN(C(=O)NCc4cnc(C)cn4)CC3)c2cc1OC` [Compound 278, 4-(6,7-Dimethoxy-4-quinazolinyl)-N-(5-methyl-2-pyrazinylmethyl)-1-piperazinecarboxamide], 202 to 204 °C; that for `CCOc1cc2ncnc(N3CCN(C(=S)NCc4cccnc4)CC3)c2cc1OC` [Compound 338, 4-(7-Ethoxy-6-methoxy-4-quinazolinyl)-N-(3-picolyl)-1-piperazinethiocarboxamide], 169 to 170 °C.
As to `COc1ccc2c(N3CCN(C(=S)NCc4cccnc4)CC3)ncnc2c1OC.Cl`, the melting point was in the range of 208 to 209 °C.
The result for `COc1cc2ncnc(N3CCN(C(=O)NCc4ccco4)CC3)c2cc1OC` [Compound 256, 4-(6,7-Dimethoxy-4-quinazolinyl)-N-furfuryl-1-piperazinecarboxamide] reads 168 to 170 °C; that for `COc1cc2c(N3CCN(C(=S)NCc4ccccc4)CC3)ncnc2cc1OC(C)C` [Compound 341, N-Benzyl-4-(7-isopropoxy-6-methoxy-4-quinazolinyl)-1-piperazinethiocarboxamide], 174 to 175 °C.
`COc1cc2ccnc(N3CCN(C(=S)NCc4cccnc4)CC3)c2cc1OC.Cl.Cl` displayed a melting point of 195 to 197 °C.
On to `COc1cc2ncnc(N3CCN(C(=S)Nc4ccc(C(C)(C)C)cc4)CC3)c2cc1OC` [Compound 22, N-(4-tert-Butylphenyl)-4-(6,7-dimethoxy-4-quinazolinyl)-1-piperazinethiocarboxamide], for which the melting point is 221 to 224 °C.
The value for `O=C(Nc1ccc([N+](=O)[O-])cc1)N1CCN(c2ncnc3cc4ccccc4cc23)CC1` [Compound 364, 4-(4-Benzo[g]quinazolinyl)-N-(4-nitrophenyl)-1-piperazinecarboxamide] was 272 to 275 °C; that for `COc1cc2ncnc(N3CCN(C(=O)Nc4ccc(Cl)c([N+](=O)[O-])c4)CC3)c2cc1OC` [Compound 83, N-(4-Chloro-3-nitrophenyl)-4-(6,7-dimethoxy-4-quinazolinyl)-1-piperazinecarboxamide] was 253 to 255 °C.
The result for `COc1cc2ccnc(N3CCN(C(=O)Nc4ccc(Oc5ccccc5)cc4)CC3)c2cc1OC` [Compound 423, 4-(6,7-Dimethoxy-1-isoquinolyl)-N-(4-phenoxyphenyl)-1-piperazinecarboxamide] reads 178 to 179 °C; that for `CCn1c(=O)n(C)c2cc3c(N4CCN(C(=O)Nc5ccc(Oc6ccccc6)cc5)CC4)ncnc3cc21` [Compound 387, 4-(1,3-Dihydro-3-ethyl-1-methyl-2-oxo-2H-imidazo[4,5-g]quinazolin-8-yl)-N-(4-phenoxyphenyl)-1-piperazinecarboxamide], 250 to 251 °C; that for `COc1cc2ncnc(N3CCN(C(=O)Nc4ccc(CN(C)C)cc4)CC3)c2cc1OC` [Compound 227, 4-(6,7-Dimethoxy-4-quinazolinyl)-N-[4-(N,N-dimethylaminomethyl)phenyl]-1-piperazinecarboxamide], 213 to 215 °C.
`COc1cc(NC(=S)N2CCN(c3ncnc4cc(OC)c(OC)cc34)CC2)cc(OC)c1` [Compound 67, N-(3,5-Dimethoxyphenyl)-4-(6,7-dimethoxy-4-quinazolinyl)-1-piperazinethiocarboxamide]: the melting point was 240 to 241 °C.
The compound `O=C(Nc1ccc(Oc2ccccc2)cc1)N1CCN(c2nncc3ccccc23)CC1` [Compound 414, N-(4-Phenoxyphenyl)-4-(1-phthalazinyl)-1-piperazinecarboxamide] registered a melting point of 202 to 203 °C.
The value for `COc1cc2c(N3CCN(C(=O)Nc4ccc(Oc5ccccc5)cc4)CC3)ncnc2c(OC)c1OC` [Compound 108, N-(4-Phenoxyphenyl)-4-(6,7,8-trimethoxy-4-quinazolinyl)-1-piperazinecarboxamide] was 83 to 84 °C; that for `COc1cc2ncnc(N3CCN(C(=S)Nc4ccc(C(=O)NC5CCOC5=O)cc4)CC3)c2cc1OC` (racemic) [Compound 92, (dl)-N-[4-(2,3,4,5-Tetrahydro-2-oxofuran-3-ylcarbamoyl)phenyl]-4-(6,7-dimethoxy-4-quinazolinyl)-1-piperazinethiocarboxamide] was 174 to 178 °C; that for `COc1cc2ncnc(N3CCN(C(=O)Nc4ccc(C)cc4)CC3)c2cc1OC` [Compound 17, 4-(6,7-Dimethoxy-4-quinazolinyl)-N-(4-tolyl)-1-piperazinecarboxamide] was 225 to 228 °C.
`COc1cc2ncnc(N3CCN(C(=O)NCc4cccnc4)CC3)c2cc1OC` [Compound 266, 4-(6,7-Dimethoxy-4-quinazolinyl)-N-(3-picolyl)-1-piperazinecarboxamide]: the melting point was 188 to 189 °C.
Turning to `COc1cc2ncnc(N3CCN(C(=S)Nc4cccc(C)c4)CC3)c2cc1OC` [Compound 145, 4-(6,7-Dimethoxy-4-quinazolinyl)-N-(3-tolyl)-1-piperazinethiocarboxamide], the melting point is 199 to 201 °C.
The value for `COc1cc2ncnc(N3CCN(C(=S)NCc4ccc(F)cc4)CC3)c2cc1OC` [Compound 173, 4-(6,7-Dimethoxy-4-quinazolinyl)-N-(4-fluorobenzyl)-1-piperazinethiocarboxamide] was 217 to 218 °C; that for `CCCOc1ccc(NC(=O)N2CCN(c3ncnc4cc(OC)c(OC)cc34)CC2)cc1` [Compound 201, 4-(6,7-Dimethoxy-4-quinazolinyl)-N-(4-propoxyphenyl)-1-piperazinecarboxamide] was 218 to 220 °C; that for `COc1cc2ncnc(N3CCN(C(=S)Nc4ccc(Oc5ccc([N+](=O)[O-])cc5)cc4)CC3)c2cc1OC` [Compound 62, 4-(6,7-Dimethoxy-4-quinazolinyl)-N-[4-(4-nitrophenoxy)phenyl]-1-piperazinethiocarboxamide] was 204 to 207 °C.
The value for `COc1cc2ncnc(N3CCN(C(=O)Nc4ccc(SC)cc4)CC3)c2cc1OC` [Compound 69, 4-(6,7-dimethoxy-4-quinazolinyl)-N-(4-methylthiophenyl)-1-piperazinecarboxamide] was 231 to 233 °C; that for `O=C(Nc1ccc(Oc2ccccc2)cc1)N1CCN(c2ncnc3c(I)cc(I)cc23)CC1` [Compound 380, 4-(6,8-Diiodo-4-quinazolinyl)-N-(4-phenoxyphenyl)-1-piperazinecarboxamide] was 242 to 244 °C.
